Laboratory results published in publication PMC9764201, “Half-calcified calmodulin promotes basal activity and inactivation of the L-type calcium channel CaV1.2” (The Journal of Biological Chemistry, 2022).

Test system: CaV1.2
Assay: Whole-cell patch clamp of CaV1.2 variants in HEK 293T/17 cells
Format: cell-based, rat
Settings: interleaved WT, mean±SEM; for Imax Ba2+ (peak current density) / Imax Ba2+ (r300): 10 mM Ba^2+; for Imax Ba2+ (peak current density): 0 mV; for Imax Ca2+ (peak current density) / Imax Ca2+ (r300): 10 mM Ca^2+; for Imax Ca2+ (peak current density): +20 mV; for VDI300: 1-(Ba300/Bamax); for netCDI300: 1-(Ca300/Camax)/(Ba300/Bamax); for Imax Ba2+ (r300) / Imax Ca2+ (r300): fraction of maximal current remaining after 300 ms
Experimental: HEK 293T/17 cells (ATCC) were maintained as previously described ([15], [53]). For electrophysiology, Lipofectamine 2000 (Invitrogene) or JetPrime (Polyplus Transfection) was used to transiently transfect cells with indicated plasmid DNAs in 35 mm dishes. For biochemistry experiments, transient transfection of HEK 293T/17 cells in […] dishes was achieved using either JetPrime or, as previously described ([15], [53]), the calcium phosphate method. Cells were cotransfected with plasmids encoding the pore-forming α11.2 subunit N-terminally tagged with eCFP ([15], [53]) or mCherry ([54]) plus pGWIH-based plasmids encoding the auxiliary subunits rat β2A ([55]) and rabbit α2δ-1 ([56]) as previously described ([15], [53]). For all transfections, equimolar ratio of 1:1:1 was used for CaV1.2 channel subunits and later further optimized (JetPrime) for CaM (at ratio of 1:1:1:0.5 for α11.2:β2A:α2δ−1:CaM). Rat brain α11.2 (GenBank ID: M67515.1) N-terminally fused to eCFP was utilized as previously described ([15]). The point mutations in plasmids encoding single-residue I1654A, Y1657D (this report), and K1662E exchanges in α11.2 were generated via QuikChange II as previously described ([15], [53]) using N-terminally eCFP ([15], [53]) or mCherry tagged ([54]) rat brain α11.2 plasmid template DNAs. We studied CDI using mCherry-tagged α11.2 subunit coexpressed with the other, untagged CaV1.2 subunits and WT CaM or the calmodulin 34 mutant CaM34 (kindly provided by JP Adelman, ([8])). For some biochemical experiments shown in Fig. S2, YFP-tagged CaM was used ([32]).
Macroscopic Ba^2+- (IBa) and Ca^2+ currents (ICa) of CaV1.2 L-type Ca^2+ channels were obtained in the whole-cell configuration using external bath solution containing (in mM) 134 N-methyl-D-glucamine, 10 BaCl2 (for CDI, 10 CaCl2), 1 MgCl2, 10 Hepes, and 10 glucose with an adjusted pH of 7.4 (Cs-OH) and an osmolarity of 300 to 310 mOsm (sucrose). Intracellular pipette solution contained (in mM) 125 Cs-MeSO3, 5 CsCl, 10 EGTA, 10 Hepes, 1 MgCl2, 4 Mg-ATP, and pH 7.3 (CsOH), mOsm 290 to 300 (sucrose). Cells were clamped at a holding potential of -80 mV and depolarized for 900 ms to a series of activating potentials, from −60 mV to +50 mV (or +80 mV for Ca^2+ currents), in increments of 10 mV at an interval of 0.033 Hz. The series resistance and the cell capacitance were directly taken from the Amplifier (Axopatch 200B, Molecular Device) and compensated to ∼40%. Data were sampled at 10 kHz and lowpass filtered at 2 kHz. Leak subtracted raw data were analyzed with Pclamp10 and GraphPad Prism IX software. All recordings were performed at room temperature (RT).
Table S1. HEK 293T/17 cells were transiently transfected with eCFP-tagged rat CaV1.2 (WT versus I1654A and K1662E or versus Y1657D) plus α2δ1 and β2a and whole cell current recorded (see Fig. 3 for more details).
Panel A. Peak current density from I/V curves of whole-cell recordings. Imax values were determined at +20 mV for Ca2+ and 0 mV for Ba2+.
Panel B. r300 values and quantification of CDI and VDI. Whole-cell currents remaining after 300 ms of depolarization (r300) are given as fraction of maximal currents based on values in A. Net CDI was calculated as the ratiometric value net 1-(Ca300/Camax)/(Ba300/Bamax) and VDI as 1- […]
For each panel: Top: Analysis of interleaved recordings of CaV1.2 WT versus I1654A and K1662E IQ- mutants (one-way ANOVA with a Bonferroni post-hoc test; *p<0.05, **p<0.01 and ***p<0.001 and ****p<0.0001). Bottom: Analysis of interleaved recordings of CaV1.2 WT versus Y1657D IQ-mutant CaV1.2 (unpaired T-Test, *p<0.05 and ****p<0.0001). […]
mean±SEM and numbers in parentheses (n) are independent experiments.
IQ-variant ImaxCa2+(pA/pF) ImaxBa2+(pA/pF) p-value

Substance: CaV1.2: WT rat brain α11.2 with α2δ1 and β2A expressed in HEK 293T/17 cells
- Imax Ba2+ (peak current density) (I1654A, K1662E): 46.7±9.1 pA/pF
- Imax Ba2+ (peak current density) (Y1657D): 21.8±4 pA/pF
- Imax Ca2+ (peak current density) (I1654A, K1662E): 18.3±4.2 pA/pF
- Imax Ca2+ (peak current density) (Y1657D): 16.4±2.1 pA/pF
- VDI300 (I1654A, K1662E): 0.19±0.02
- VDI300 (Y1657D): 0.17±0.02
- netCDI300 (I1654A, K1662E): 0.59±0.04
- netCDI300 (Y1657D): 0.61±0.03
- Imax Ba2+ (r300) (I1654A, K1662E): 0.81±0.02
- Imax Ba2+ (r300) (Y1657D): 0.83±0.02
- Imax Ca2+ (r300) (I1654A, K1662E): 0.33±0.03
- Imax Ca2+ (r300) (Y1657D): 0.32±0.03
